From ChEMBL document CHEMBL5465560, “Selectivity Literature for EUbOPEN Chemogenomic Library” (2024)

Assays:
[1] = target: Potassium voltage-gated channel subfamily A member 1 (Homo sapiens) (UniProt Q09470); assay: Selectivity interaction (Panel of non-epigenetic targets (kinases, GPCRs, ion channels, and transporters, Eurofins) ) EUB0000271b KCNA1; settings: at 1 µM
[2] = target: Vasopressin V1a receptor (Homo sapiens) (UniProt P37288); assay: Selectivity interaction (Eurofins CEREP Diversity Profile (receptors and ion channels)) EUB0000279b AVPR1A; settings: at 10 µM
Chain of Vasopressin V1a receptor (Homo sapiens) (P37288 whole entry, looked up): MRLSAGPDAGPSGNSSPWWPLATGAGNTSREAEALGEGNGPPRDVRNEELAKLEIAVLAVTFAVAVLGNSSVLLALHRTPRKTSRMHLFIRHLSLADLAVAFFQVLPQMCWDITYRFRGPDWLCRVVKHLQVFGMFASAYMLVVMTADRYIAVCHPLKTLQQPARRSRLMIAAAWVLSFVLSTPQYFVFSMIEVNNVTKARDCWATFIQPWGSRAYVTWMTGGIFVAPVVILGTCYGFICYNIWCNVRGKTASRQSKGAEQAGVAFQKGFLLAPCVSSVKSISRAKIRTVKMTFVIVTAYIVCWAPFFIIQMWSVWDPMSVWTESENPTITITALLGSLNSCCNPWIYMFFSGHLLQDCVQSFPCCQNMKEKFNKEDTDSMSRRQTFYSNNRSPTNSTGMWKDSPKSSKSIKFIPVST

[3] = target: Dual specificity protein kinase CLK4 (Homo sapiens, UniProt Q9HAZ1); assay: Selectivity interaction (KinomeScan (DiscoverX)) EUB0001079a CLK4; settings: at 1 µM
Chain of Dual specificity protein kinase CLK4 (Q9HAZ1 whole entry, looked up): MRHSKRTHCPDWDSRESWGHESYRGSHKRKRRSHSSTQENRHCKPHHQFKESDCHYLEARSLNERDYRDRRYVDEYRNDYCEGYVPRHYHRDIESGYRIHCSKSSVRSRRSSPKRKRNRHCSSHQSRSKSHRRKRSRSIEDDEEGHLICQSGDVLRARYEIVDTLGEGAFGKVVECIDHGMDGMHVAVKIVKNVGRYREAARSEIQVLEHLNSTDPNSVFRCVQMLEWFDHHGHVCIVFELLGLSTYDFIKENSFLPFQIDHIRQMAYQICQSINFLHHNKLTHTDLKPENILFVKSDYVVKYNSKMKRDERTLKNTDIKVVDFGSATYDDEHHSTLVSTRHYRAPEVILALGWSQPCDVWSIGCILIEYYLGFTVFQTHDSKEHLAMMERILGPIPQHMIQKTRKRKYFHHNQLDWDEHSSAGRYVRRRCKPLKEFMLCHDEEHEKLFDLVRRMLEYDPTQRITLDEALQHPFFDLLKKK

[4] = target: T1, MAP kinase-activated protein kinase 5 (Homo sapiens) (UniProt Q8IW41); assay: Selectivity interaction (KinomeScan (DiscoverX)) EUB0001079a MAPKAPK5; settings: at 1 µM
T1 sequence (whole entry): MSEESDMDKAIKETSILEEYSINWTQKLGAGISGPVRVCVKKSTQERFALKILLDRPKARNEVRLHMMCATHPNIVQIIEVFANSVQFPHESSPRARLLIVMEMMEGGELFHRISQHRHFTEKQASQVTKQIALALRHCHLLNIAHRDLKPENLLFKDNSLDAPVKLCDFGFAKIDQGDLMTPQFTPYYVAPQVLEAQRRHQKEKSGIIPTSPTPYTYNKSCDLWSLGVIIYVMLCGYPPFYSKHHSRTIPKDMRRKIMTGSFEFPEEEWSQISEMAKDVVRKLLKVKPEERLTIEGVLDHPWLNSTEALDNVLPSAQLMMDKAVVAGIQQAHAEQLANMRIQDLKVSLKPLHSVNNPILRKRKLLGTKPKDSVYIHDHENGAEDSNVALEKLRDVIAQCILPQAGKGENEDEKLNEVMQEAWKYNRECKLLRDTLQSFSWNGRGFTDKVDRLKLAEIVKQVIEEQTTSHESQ

[5] = target: Ribosomal protein S6 kinase alpha-1 (Homo sapiens, UniProt Q15418); assay: Selectivity interaction (ActivX KiNativ screen (ex vivo kinase selectivity in human PBMCs)) EUB0001619a RPS6KA1; assay type: cell-based; settings: PBMC, at 1 µM
Chain of Ribosomal protein S6 kinase alpha-1 (Q15418 whole entry): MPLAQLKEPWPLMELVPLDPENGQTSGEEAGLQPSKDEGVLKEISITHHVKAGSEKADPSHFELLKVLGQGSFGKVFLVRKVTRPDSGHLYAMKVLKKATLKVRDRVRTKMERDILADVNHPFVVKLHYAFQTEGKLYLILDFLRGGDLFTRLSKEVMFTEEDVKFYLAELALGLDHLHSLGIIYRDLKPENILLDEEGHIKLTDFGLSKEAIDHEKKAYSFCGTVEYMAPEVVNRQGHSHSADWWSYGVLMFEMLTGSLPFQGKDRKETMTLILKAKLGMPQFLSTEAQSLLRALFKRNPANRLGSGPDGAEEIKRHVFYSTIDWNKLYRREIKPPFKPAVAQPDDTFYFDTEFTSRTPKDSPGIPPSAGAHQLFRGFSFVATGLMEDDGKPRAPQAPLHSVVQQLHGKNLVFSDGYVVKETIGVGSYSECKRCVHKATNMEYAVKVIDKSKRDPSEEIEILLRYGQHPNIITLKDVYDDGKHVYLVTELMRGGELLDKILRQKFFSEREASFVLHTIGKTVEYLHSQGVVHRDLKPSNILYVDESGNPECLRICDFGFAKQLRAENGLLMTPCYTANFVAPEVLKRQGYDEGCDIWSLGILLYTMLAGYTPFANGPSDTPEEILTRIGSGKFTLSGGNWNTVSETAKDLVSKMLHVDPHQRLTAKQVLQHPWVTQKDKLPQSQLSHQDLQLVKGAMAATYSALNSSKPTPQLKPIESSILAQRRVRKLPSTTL

[6] = target: Ribosomal protein S6 kinase alpha-5 (Homo sapiens) (UniProt O75582); assay: Selectivity interaction (Kinase panel (KiNativ target engagement assay in Jurkat cells)) EUB0001635a RPS6KA5; assay type: cell-based; settings: Selectivity number of off-targets 0.0, Selectivity number of targets 233.0, Source Knowledge https://www.sciencedirect.com/science/article/pii/S2451945619300674?via%3Dihub, at 1 µM
Chain of Ribosomal protein S6 kinase alpha-5 (Homo sapiens) (O75582 whole entry, looked up): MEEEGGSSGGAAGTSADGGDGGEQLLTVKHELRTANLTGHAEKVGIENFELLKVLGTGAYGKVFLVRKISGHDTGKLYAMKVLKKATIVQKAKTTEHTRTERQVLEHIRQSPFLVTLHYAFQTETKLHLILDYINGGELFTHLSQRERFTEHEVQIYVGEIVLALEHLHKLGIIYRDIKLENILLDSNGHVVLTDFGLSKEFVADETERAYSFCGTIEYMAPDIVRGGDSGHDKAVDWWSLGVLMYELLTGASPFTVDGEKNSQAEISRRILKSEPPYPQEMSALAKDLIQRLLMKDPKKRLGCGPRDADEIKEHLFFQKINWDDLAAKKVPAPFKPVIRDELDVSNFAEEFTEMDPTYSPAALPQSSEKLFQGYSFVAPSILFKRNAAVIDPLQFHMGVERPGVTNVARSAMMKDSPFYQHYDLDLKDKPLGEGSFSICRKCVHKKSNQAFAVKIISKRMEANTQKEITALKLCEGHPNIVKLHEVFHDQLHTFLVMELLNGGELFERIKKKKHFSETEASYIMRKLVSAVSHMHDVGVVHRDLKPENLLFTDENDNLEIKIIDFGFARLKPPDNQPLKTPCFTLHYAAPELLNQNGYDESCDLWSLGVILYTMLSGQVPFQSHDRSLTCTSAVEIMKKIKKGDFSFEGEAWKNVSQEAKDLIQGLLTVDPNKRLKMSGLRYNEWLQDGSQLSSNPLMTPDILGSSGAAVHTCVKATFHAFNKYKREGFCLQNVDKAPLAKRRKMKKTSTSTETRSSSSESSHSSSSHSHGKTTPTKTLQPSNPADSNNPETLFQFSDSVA

[7] = target: Serine/threonine-protein kinase MARK2 (Homo sapiens) (UniProt Q7KZI7); assay: Selectivity interaction (ActivX KiNativ screen (kinase selectivity in THP-1 cell lysates)) EUB0000639a MARK2; assay type: subcellular; settings: lysate
Chain of Serine/threonine-protein kinase MARK2 (Homo sapiens) (Q7KZI7 whole entry): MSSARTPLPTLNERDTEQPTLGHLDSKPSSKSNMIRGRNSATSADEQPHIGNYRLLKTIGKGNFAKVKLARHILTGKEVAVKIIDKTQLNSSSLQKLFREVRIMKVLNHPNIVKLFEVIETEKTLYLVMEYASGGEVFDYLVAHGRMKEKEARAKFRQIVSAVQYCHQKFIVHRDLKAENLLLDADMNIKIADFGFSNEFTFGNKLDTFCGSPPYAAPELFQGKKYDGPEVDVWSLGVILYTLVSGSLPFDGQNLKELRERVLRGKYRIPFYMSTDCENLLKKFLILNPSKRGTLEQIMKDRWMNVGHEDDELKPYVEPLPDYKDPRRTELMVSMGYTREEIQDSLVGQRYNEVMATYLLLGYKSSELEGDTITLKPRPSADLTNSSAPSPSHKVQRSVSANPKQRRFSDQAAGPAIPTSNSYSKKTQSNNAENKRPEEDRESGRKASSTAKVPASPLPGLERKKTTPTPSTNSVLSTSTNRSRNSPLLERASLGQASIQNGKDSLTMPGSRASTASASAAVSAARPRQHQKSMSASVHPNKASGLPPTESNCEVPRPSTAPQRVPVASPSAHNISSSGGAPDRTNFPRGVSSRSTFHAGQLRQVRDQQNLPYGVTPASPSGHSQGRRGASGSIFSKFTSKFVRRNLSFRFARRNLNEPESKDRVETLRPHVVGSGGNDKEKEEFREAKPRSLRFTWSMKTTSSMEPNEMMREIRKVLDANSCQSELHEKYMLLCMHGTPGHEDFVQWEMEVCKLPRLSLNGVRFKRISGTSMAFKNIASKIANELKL

[8] = target: T2, Mitogen-activated protein kinase kinase kinase 2 (Homo sapiens) (UniProt Q9Y2U5); assay: Selectivity interaction (ActivX KiNativ screen (kinase selectivity in THP-1 cell lysates)) EUB0000639a MAP3K2; assay type: subcellular; settings: lysate, at 0.2 µM
T2 sequence (whole entry): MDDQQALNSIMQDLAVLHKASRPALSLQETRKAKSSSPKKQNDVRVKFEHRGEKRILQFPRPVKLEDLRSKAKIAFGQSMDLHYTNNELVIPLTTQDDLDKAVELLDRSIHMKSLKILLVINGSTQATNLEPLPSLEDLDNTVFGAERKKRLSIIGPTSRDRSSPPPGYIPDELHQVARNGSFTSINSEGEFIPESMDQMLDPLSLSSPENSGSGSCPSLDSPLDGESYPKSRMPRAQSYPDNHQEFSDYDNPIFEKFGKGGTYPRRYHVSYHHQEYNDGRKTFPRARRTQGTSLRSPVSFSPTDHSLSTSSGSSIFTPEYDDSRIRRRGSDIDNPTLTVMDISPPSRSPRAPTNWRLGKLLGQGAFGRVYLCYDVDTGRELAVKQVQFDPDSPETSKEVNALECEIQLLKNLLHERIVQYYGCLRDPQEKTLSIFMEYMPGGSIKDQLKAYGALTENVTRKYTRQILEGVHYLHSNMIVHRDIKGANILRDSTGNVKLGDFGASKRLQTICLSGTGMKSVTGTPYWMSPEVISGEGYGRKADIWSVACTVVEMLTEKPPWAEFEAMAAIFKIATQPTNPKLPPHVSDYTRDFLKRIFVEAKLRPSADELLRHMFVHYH

[9] = target: D(1A) dopamine receptor (Homo sapiens, UniProt P21728); assay: Selectivity interaction (Panel of kinases, GPCRs, ion channels and transporters (enzymatic assay)) EUB0000266bCl DRD1
Chain of D(1A) dopamine receptor (P21728 whole entry): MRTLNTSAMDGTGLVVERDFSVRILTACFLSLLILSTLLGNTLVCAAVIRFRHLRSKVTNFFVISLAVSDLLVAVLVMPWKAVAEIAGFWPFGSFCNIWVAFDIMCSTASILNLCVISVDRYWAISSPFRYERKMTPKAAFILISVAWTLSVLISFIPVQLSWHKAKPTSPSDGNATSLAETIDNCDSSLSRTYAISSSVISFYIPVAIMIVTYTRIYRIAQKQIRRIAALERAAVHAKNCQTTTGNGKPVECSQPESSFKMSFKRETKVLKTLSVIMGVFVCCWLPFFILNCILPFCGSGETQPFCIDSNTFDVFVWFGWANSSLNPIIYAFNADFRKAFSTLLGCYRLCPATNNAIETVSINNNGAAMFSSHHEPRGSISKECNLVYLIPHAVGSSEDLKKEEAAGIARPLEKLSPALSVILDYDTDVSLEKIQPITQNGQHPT

[10] = target: Serine/threonine-protein kinase 24 (Homo sapiens) (UniProt Q9Y6E0); assay: Selectivity interaction (KinomeScan (DiscoverX)) EUB0000666a STK24; settings: at 10 µM
Chain of Serine/threonine-protein kinase 24 (Homo sapiens) (Q9Y6E0 whole entry, looked up): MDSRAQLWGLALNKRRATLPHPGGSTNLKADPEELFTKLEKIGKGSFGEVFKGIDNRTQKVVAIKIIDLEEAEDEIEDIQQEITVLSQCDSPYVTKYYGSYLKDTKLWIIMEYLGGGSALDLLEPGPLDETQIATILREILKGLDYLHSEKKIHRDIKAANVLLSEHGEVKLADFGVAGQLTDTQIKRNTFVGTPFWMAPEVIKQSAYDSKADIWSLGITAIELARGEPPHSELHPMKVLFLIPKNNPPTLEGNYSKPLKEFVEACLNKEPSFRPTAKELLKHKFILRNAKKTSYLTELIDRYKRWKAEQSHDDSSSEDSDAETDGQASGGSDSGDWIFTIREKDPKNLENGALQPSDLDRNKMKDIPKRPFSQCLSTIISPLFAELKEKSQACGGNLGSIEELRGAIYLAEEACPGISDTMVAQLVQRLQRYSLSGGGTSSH

[11] = target: T3, NUAK family SNF1-like kinase 2 (Homo sapiens) (UniProt Q9H093); assay: Selectivity interaction (LanthaScreen Eu Kinase Binding Assay) EUB0001632a NUAK2; settings: at 10 µM
T3 sequence (whole entry): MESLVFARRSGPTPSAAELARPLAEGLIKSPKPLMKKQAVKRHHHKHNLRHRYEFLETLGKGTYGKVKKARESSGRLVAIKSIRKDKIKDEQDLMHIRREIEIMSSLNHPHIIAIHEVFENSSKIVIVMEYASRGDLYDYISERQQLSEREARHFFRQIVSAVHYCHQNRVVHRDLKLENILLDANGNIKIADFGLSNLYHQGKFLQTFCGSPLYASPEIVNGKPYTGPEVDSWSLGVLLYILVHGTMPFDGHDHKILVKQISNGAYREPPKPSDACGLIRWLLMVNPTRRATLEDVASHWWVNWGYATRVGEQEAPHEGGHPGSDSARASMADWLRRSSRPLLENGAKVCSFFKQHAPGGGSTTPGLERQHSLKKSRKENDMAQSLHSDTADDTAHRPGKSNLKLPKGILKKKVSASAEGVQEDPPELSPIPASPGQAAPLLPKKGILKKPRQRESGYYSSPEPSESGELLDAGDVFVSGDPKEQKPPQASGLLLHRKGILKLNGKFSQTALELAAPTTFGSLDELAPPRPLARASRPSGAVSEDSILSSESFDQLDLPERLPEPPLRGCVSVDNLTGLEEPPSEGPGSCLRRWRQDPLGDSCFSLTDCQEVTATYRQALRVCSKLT

[12] = target: Serine/threonine-protein kinase MARK2 (Homo sapiens) (UniProt Q7KZI7); assay: Selectivity interaction (KinomeScan (DiscoverX)) EUB0000695a MARK2; settings: at 100 nM

Chain of Potassium voltage-gated channel subfamily A member 1 (Homo sapiens) (Q09470 whole entry): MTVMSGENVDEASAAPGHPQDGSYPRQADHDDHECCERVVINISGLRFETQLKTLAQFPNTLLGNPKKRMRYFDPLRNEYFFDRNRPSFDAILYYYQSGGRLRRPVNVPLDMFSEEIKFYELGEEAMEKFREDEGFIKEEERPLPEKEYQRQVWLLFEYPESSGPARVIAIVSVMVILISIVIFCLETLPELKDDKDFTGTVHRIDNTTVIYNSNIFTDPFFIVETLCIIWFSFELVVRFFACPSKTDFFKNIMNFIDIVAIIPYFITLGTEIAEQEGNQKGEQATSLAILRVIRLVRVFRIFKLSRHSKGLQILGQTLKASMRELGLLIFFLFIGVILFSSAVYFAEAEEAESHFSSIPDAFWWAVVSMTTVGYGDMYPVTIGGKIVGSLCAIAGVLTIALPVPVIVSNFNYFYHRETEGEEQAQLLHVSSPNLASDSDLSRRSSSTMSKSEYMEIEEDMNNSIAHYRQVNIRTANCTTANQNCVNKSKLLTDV

Structure (SMILES): Cc1cc(C)cc([C@@H]2c3cc(C)ccc3NC(=O)CN2C(=O)c2ccc(Br)s2)c1
- % of inhibition [1]: -10%

Structure (SMILES): CC(=O)c1cc(-c2ccccc2OCC2CC2)c2ncccn12
- % of control [2]: 89%

Structure (SMILES): Nc1cnc(N2CCc3cc(S(=O)(=O)Nc4c(F)cc(Cl)cc4F)cc(N4CCCC4=O)c32)nc1 [TP-020n]
- % of control [3]: 89%
- % of control [4]: 92%

Structure (SMILES): N#Cc1cccc(-c2c[nH]c3ncnc(N4CCOCC4)c23)c1
- % of inhibition [5]: -3%

Structure (SMILES): C=CC(=O)Nc1ccc(C(=O)Nc2[nH]nc3c2CN(C(=O)N[C@H](CN(C)C)c2ccccc2)C3(C)C)cc1
- % of engagement [6]: 5.7%

Structure (SMILES): CC[C@@H]1[C@H](F)C(=O)N[C@@H]1COc1nccc2cc(C(N)=O)c(OC)cc12 [ZIMLOVISERTIB]
- % of inhibition ([7]; at 0.01 µM): -8%
- % of inhibition ([7]; at 0.04 µM): 6.9%
- % of inhibition ([7]; at 0.2 µM): 9.9%
- % of inhibition ([7]; at 1 µM): 30%
- % of inhibition ([7]; at 5 µM): 56.3%
- % of inhibition [8]: -1.4%

Structure (SMILES): CCn1c(-c2nc3cc(C(=O)N4CCCC(N)C4)ccc3n2C)cc2ccccc21 (stereo unspecified)
- pXC50 [9]: 4.6 M

Structure (SMILES): O=C(NOC[C@H](O)CO)c1ccc(F)c(F)c1Nc1ccc(I)cc1F
- % of control [10]: 88%

Structure (SMILES): Cn1cc(-n2cnc3c(NCc4nc5cc(Cl)c(Cl)cc5[nH]4)nc(N4CCOCC4)nc32)cn1
- % of inhibition [11]: -12.8%

Structure (SMILES): Cc1cc(F)c(C(=O)Nc2cccc(-c3nncn3C(C)C)n2)cc1-n1cnc(C2CC2)c1
- % of control [12]: 100%
